The values that follow come from publication PMC7689250, “Synthetic Peptide Libraries Designed From a Minimal Alpha-Helical Domain of AS-48-Bacteriocin Homologs Exhibit Potent Antibacterial Activity” (Frontiers in Microbiology, 2020).

Structures are written as SMILES. Read-outs that look alike come from different tables or passages of the source. Residues, ends and D or L forms follow the SMILES beside them.

One test relates to E. coli (BL21). The class given is cell-based, Escherichia coli. Conditions: for MBC: BL21; for MIC: BL21, 16 h. Here is the method:
(§1) Peptides were screened against Escherichia coli (BL21), Streptococcus pyogenes (M1T1 5448, hereby referred to as M1), Pseudomonas aeruginosa (PAO1), and Staphylococcus aureus (USA300). Overnight bacterial cultures were grown in optimal media for each species: Luria-Bertani (LB) broth for E. coli, P. aeruginosa, and S. aureus, and Todd-Hewitt (TH) broth for S. pyogenes. Cultures were pelleted and re-suspended in Mueller-Hinton (MH) broth for peptide screens or minimal inhibitory concentration (MIC) assays, with 1 × 10^6 CFU/mL bacteria added per well ([Wiegand et al., 2008]). MICs for each parent peptide were identified against each bacterial strain as previously described ([Fields et al., 2018]). Members of each peptide library were screened against each bacterial strain at half of the MIC of the corresponding parent peptide to identify library members with increased antimicrobial activity relative to the parent peptide. […] Minimal bactericidal concentrations (MBCs) were determined following the respective MIC assays by plating aliquots from wells corresponding to each peptide concentration from the 96-well plate used for the MIC on species-appropriate agar. Plates were incubated at 37°C overnight, and MBCs were identified as the lowest concentrations of peptide at which no colonies were obtained. A Synergy H1 Microplate Reader (BioTek, Winooski, VT, United States) was used to determine the MICs and identify peptides with greater antimicrobial activity than the corresponding parent peptide by measuring OD 600 of the bacterial cultures in 96-well microtiter plates.

The subject of another test is S. pyogenes (M1). Type of test: cell-based, Streptococcus pyogenes. To be noted: for MBC: M1. On the procedure:
as §1

The subject of a further test is S. aureus (USA300). The class given is cell-based, Staphylococcus aureus. Conditions: for MBC: USA300; for MIC: USA300, 16 h. On the procedure:
as §1

For another test, the system named is P. aeruginosa (PAO1). The class given is cell-based, Pseudomonas aeruginosa. Conditions: for MBC: PAO1; for MIC: PAO1, 16 h. Here is the method: as §1

As for `CC[C@H](C)[C@H](NC(=O)[C@H](CCC(=O)O)NC(=O)[C@H](CCCNC(=N)N)NC(=O)[C@H](CCCNC(=N)N)NC(=O)[C@H](CC(C)C)NC(=O)[C@H](Cc1ccc(O)cc1)NC(=O)[C@H](C)NC(=O)[C@H](CCCCN)NC(=O)[C@@H](NC(=O)[C@@H](NC(=O)[C@H](CCC(N)=O)NC(=O)[C@H](CCCNC(=N)N)NC(=O)CNC(=O)[C@H](C)N)[C@@H](C)O)[C@@H](C)CC)C(=O)N[C@@H](CCCNC(=N)N)C(=O)N[C@@H](CCCCN)C(=O)N[C@@H](CCCNC(=N)N)C(=O)NCC(=O)N[C@@H](CCCNC(=N)N)C(=O)N[C@@H](CCCCN)C(=O)N[C@@H](C)C(=O)N[C@H](C(=O)N[C@H](C(=O)N[C@@H](C)C(=O)N[C@@H](Cc1c[nH]c2ccccc12)C(=O)O)[C@@H](C)CC)C(C)C` [Syn-sordellicin-1] (H-AGRQTIKAYLRREIRKRGRKAVIAW-OH; N-terminus and C-terminus assumed), the MBC (in general, the smallest concentration meeting the test's criterion for killing) with E. coli (BL21) is 8 µM; in the test on S. pyogenes (M1), 8 µM; in the test with S. aureus (USA300), >128 µM; in the test on P. aeruginosa (PAO1), 16 µM. Moreover, the MIC (commonly the smallest concentration in the dilution series that meets the test's criterion for growth inhibition) is 8 µM with E. coli (BL21); 8 µM with S. pyogenes (M1) (M1, 16 h); >128 µM in the test with S. aureus (USA300); 16 µM in the test with P. aeruginosa (PAO1).

With `CC[C@H](C)[C@H](NC(=O)[C@H](Cc1ccccc1)NC(=O)[C@H](C)NC(=O)[C@H](CCCCN)NC(=O)[C@H](CCCCN)NC(=O)CNC(=O)[C@H](CCCNC(=N)N)NC(=O)[C@H](CCCCN)NC(=O)[C@H](CCCNC(=N)N)NC(=O)[C@H](CC(C)C)NC(=O)[C@H](CCC(=O)O)NC(=O)[C@H](CCC(=O)O)NC(=O)[C@H](CCCCN)NC(=O)[C@H](CC(C)C)NC(=O)[C@H](Cc1ccc(O)cc1)NC(=O)[C@H](CC(C)C)NC(=O)[C@@H](NC(=O)[C@H](CC(C)C)NC(=O)[C@H](C)NC(=O)[C@H](CCC(N)=O)NC(=O)[C@H](CCCNC(=N)N)NC(=O)CNC(=O)[C@H](C)N)[C@@H](C)O)C(=O)N[C@@H](C)C(=O)N[C@@H](Cc1c[nH]c2ccccc12)C(=O)O` [Syn-xiamencin-1] (H-AGRQALTLYLKEELRKRGKKAFIAW-OH; N-terminus and C-terminus assumed), the MBC in the test on E. coli (BL21) is 32 µM; with S. pyogenes (M1), 16 µM; in the test with S. aureus (USA300), >128 µM; with P. aeruginosa (PAO1), >128 µM. The MIC in the test with E. coli (BL21) was 32 µM; in the test on S. pyogenes (M1) (M1, 16 h), 16 µM; with S. aureus (USA300), >128 µM; in the test with P. aeruginosa (PAO1), >128 µM.

Consider `CC[C@H](C)[C@H](NC(=O)[C@H](CCCCN)NC(=O)[C@H](CCCCN)NC(=O)[C@H](Cc1c[nH]c2ccccc12)NC(=O)[C@H](CCC(=O)O)NC(=O)[C@H](CC(N)=O)NC(=O)[C@@H](NC(=O)[C@@H](NC(=O)[C@H](CCCCN)NC(=O)[C@H](CCCCN)NC(=O)[C@H](CC(C)C)NC(=O)[C@H](CCCNC(=N)N)NC(=O)[C@H](CC(N)=O)NC(=O)[C@H](Cc1ccccc1)NC(=O)[C@@H](NC(=O)[C@H](CCCCN)NC(=O)[C@H](CCC(=O)O)NC(=O)[C@@H](NC(=O)CNC(=O)[C@H](C)N)[C@@H](C)O)[C@@H](C)CC)[C@@H](C)O)[C@@H](C)CC)C(=O)N[C@@H](C)C(=O)N[C@@H](CCCCN)C(=O)N[C@@H](CCCNC(=N)N)C(=O)N[C@@H](C)C(=O)N[C@@H](Cc1c[nH]c2ccccc12)C(=O)O` [Syn-larvacin-48] (H-AGTEKIFNRLKKTINEWKKIAKRAW-OH; N-terminus and C-terminus assumed), for which the MBC amounted to 4 µM in the test on E. coli (BL21), 8 µM with S. pyogenes (M1), 8 µM in the test on S. aureus (USA300) and 32 µM with P. aeruginosa (PAO1). Also, the MIC in the test with E. coli (BL21) is 4 µM; with S. pyogenes (M1) (M1, 16 h), 8 µM; in the test with S. aureus (USA300) it was 8 µM; in the test on P. aeruginosa (PAO1), 16 µM.

Turning to `CC[C@H](C)[C@H](NC(=O)[C@H](CCCCN)NC(=O)CNC(=O)[C@H](Cc1ccccc1)NC(=O)[C@H](CCCCN)NC(=O)[C@H](CCCNC(=N)N)NC(=O)[C@H](CC(C)C)NC(=O)[C@H](Cc1ccc(O)cc1)NC(=O)[C@H](CCC(=O)O)NC(=O)[C@H](CC(C)C)NC(=O)[C@H](CC(C)C)NC(=O)[C@H](CCC(=O)O)NC(=O)[C@H](CCCCN)NC(=O)[C@@H](NC(=O)[C@H](CC(C)C)NC(=O)[C@H](CCCNC(=N)N)NC(=O)[C@H](CCC(N)=O)NC(=O)[C@H](C)NC(=O)CNC(=O)[C@@H](N)Cc1c[nH]c2ccccc12)[C@@H](C)O)C(=O)N[C@@H](C)C(=O)N[C@@H](CCCNC(=N)N)C(=O)N[C@@H](CCCCN)C(=O)N[C@@H](C)C(=O)N[C@@H](Cc1c[nH]c2ccccc12)C(=O)O` [Syn-xiamencin-15] (H-WGAQRLTKELLEYLRKFGKIARKAW-OH; N-terminus and C-terminus assumed), the MBC in the test on E. coli (BL21) is 2 µM; in the test with S. pyogenes (M1), 1 µM; in the test with S. aureus (USA300), 128 µM; with P. aeruginosa (PAO1), >128 µM. For the same compound, the minimum inhibitory concentration (MIC) in the test on E. coli (BL21) was 2 µM; in the test on S. pyogenes (M1) (M1, 16 h) it was 1 µM; with S. aureus (USA300), 64 µM; with P. aeruginosa (PAO1) it was >128 µM.

Consider `CC[C@H](C)[C@H](NC(=O)[C@H](CCCCN)NC(=O)[C@H](CCCCN)NC(=O)[C@H](CCCCN)NC(=O)[C@H](CC(C)C)NC(=O)[C@H](Cc1ccccc1)NC(=O)[C@H](CCC(N)=O)NC(=O)[C@H](CCCNC(=N)N)NC(=O)[C@@H](NC(=O)[C@@H](NC(=O)[C@H](CCC(=O)O)NC(=O)[C@H](CCCCN)NC(=O)CNC(=O)[C@H](C)N)[C@@H](C)O)[C@@H](C)CC)C(=O)N[C@@H](CCC(N)=O)C(=O)N[C@@H](CCC(=O)O)C(=O)N[C@@H](CCCCN)C(=O)NCC(=O)N[C@@H](CCCCN)C(=O)N[C@@H](CCCNC(=N)N)C(=O)N[C@@H](C)C(=O)N[C@H](C(=O)N[C@H](C(=O)N[C@@H](C)C(=O)N[C@@H](Cc1c[nH]c2ccccc12)C(=O)O)[C@@H](C)CC)[C@@H](C)O` [Syn-larvacin-1] (H-AGKETIRQFLKKKIQEKGKRATIAW-OH; N-terminus and C-terminus assumed), for which the MBC in the test on E. coli (BL21) was >128 µM; in the test with S. pyogenes (M1), 64 µM; with S. aureus (USA300), >128 µM; in the test on P. aeruginosa (PAO1), >128 µM. Also, the minimal inhibitory concentration (MIC) is 32 µM with E. coli (BL21); 8 µM in the test on S. pyogenes (M1) (M1, 16 h); >128 µM with S. aureus (USA300); >128 µM with P. aeruginosa (PAO1).

In the case of `CC[C@H](C)[C@H](NC(=O)[C@H](CCCCN)NC(=O)[C@H](CCCCN)NC(=O)CNC(=O)[C@H](CCC(=O)O)NC(=O)[C@H](CCC(N)=O)NC(=O)[C@@H](NC(=O)[C@H](Cc1c[nH]c2ccccc12)NC(=O)[C@H](CCCCN)NC(=O)[C@H](CCCCN)NC(=O)[C@H](CC(C)C)NC(=O)[C@H](CCCNC(=N)N)NC(=O)[C@H](CCC(N)=O)NC(=O)[C@H](Cc1ccccc1)NC(=O)[C@@H](NC(=O)[C@H](CCCCN)NC(=O)[C@H](CCC(=O)O)NC(=O)[C@@H](NC(=O)CNC(=O)[C@H](C)N)[C@@H](C)O)[C@@H](C)CC)[C@@H](C)CC)C(=O)N[C@@H](C)C(=O)N[C@@H](CCCCN)C(=O)N[C@@H](CCCNC(=N)N)C(=O)N[C@@H](C)C(=O)N[C@@H](Cc1c[nH]c2ccccc12)C(=O)O` [Syn-larvacin-31] (H-AGTEKIFQRLKKWIQEGKKIAKRAW-OH; N-terminus and C-terminus assumed), the MBC in the test on E. coli (BL21) was found to be 1 µM; with S. pyogenes (M1) it was 0.25 µM; in the test on S. aureus (USA300), 8 µM; in the test on P. aeruginosa (PAO1), 128 µM. In addition, the MIC with E. coli (BL21) was determined as 1 µM; in the test with S. pyogenes (M1) (M1, 16 h) it was 0.25 µM; in the test with S. aureus (USA300), 8 µM; with P. aeruginosa (PAO1) it was 64 µM.

As for `CC[C@H](C)[C@H](NC(=O)[C@H](CCCCN)NC(=O)CNC(=O)[C@H](Cc1ccccc1)NC(=O)[C@H](CCCCN)NC(=O)[C@H](CCCNC(=N)N)NC(=O)[C@H](CC(C)C)NC(=O)[C@H](Cc1ccc(O)cc1)NC(=O)[C@H](CCC(=O)O)NC(=O)[C@H](CC(C)C)NC(=O)[C@H](CC(C)C)NC(=O)[C@H](CCC(=O)O)NC(=O)[C@H](CCCCN)NC(=O)[C@@H](NC(=O)[C@H](CC(C)C)NC(=O)[C@H](CCCNC(=N)N)NC(=O)[C@H](CCC(N)=O)NC(=O)[C@H](C)NC(=O)CNC(=O)[C@H](C)N)[C@@H](C)O)C(=O)N[C@@H](C)C(=O)N[C@@H](CCCNC(=N)N)C(=O)N[C@@H](CCCCN)C(=O)N[C@@H](C)C(=O)N[C@@H](Cc1c[nH]c2ccccc12)C(=O)O` [Syn-xiamencin-7] (H-AGAQRLTKELLEYLRKFGKIARKAW-OH; N-terminus and C-terminus assumed), the MBC with E. coli (BL21) was 4 µM; in the test with S. pyogenes (M1) it was 0.5 µM; with S. aureus (USA300), >128 µM; with P. aeruginosa (PAO1), 128 µM. For the same compound, the MIC in the test on E. coli (BL21) was 4 µM; with S. pyogenes (M1) (S. pyogenes M1), 0.5 µM; in the test with S. aureus (USA300), >128 µM; with P. aeruginosa (PAO1), 64 µM.
